Results on three compounds are retold here after article PMC10132538, “Regulation of the two-pore domain potassium channel, THIK-1 and THIK-2, by G protein coupled receptors” (PLOS ONE, 2023).

Assay [1] has as its target T1, THIK-1 channel (Mus musculus, UniProt Q8R1P5).
T1 construct: expressed in transfected cells; host or cells: HEK293T
T1 sequence (Q8R1P5 1-405): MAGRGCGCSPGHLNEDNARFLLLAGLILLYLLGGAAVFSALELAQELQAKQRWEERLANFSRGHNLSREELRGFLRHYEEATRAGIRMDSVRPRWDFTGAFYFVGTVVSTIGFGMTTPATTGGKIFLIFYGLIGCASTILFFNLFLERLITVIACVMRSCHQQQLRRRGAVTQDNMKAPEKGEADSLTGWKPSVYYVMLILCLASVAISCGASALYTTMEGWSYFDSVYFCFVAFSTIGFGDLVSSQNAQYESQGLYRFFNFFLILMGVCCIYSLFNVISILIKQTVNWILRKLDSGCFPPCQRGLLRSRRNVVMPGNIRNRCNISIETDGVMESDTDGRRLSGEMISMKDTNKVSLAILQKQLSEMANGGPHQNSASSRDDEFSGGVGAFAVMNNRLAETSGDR
Nature of the assay: Effect of DAG analogue on THIK-1 channel current (I10th/I0). The following applies: 50 sec after application. It is filed as cell-based. The source says:
(§1) Pertussis toxin (PTX) was purchased from Wako (Osaka, Japan).
Fig 5 Effects of OAG on THIK-1 channel current. (A) Current and membrane potential relationships before and after application of OAG. Ramp pulses were applied ever 5 sec before and after application of OAG. The current and membrane potential relationships before (black) and 50 sec after application of the indicated concentration of OAG (red) are shown. (B) Effects of OAG on THIK-1 channel. Circles indicate the ratio of the current amplitudes after application of OAG or DMSO to the amplitudes before application of them (I10th/I0). Mean and S.D. are shown as bars (n = 8–12). n.s.: p> 0.05.

For the next assay, the target named is T2, ΔN-THIK-2 channel (Mus musculus, UniProt F6UVE5).
T2 construct: expressed in transfected cells; host or cells: CHO-K1
T2 sequence (F6UVE5 with tags, fused parts or gaps): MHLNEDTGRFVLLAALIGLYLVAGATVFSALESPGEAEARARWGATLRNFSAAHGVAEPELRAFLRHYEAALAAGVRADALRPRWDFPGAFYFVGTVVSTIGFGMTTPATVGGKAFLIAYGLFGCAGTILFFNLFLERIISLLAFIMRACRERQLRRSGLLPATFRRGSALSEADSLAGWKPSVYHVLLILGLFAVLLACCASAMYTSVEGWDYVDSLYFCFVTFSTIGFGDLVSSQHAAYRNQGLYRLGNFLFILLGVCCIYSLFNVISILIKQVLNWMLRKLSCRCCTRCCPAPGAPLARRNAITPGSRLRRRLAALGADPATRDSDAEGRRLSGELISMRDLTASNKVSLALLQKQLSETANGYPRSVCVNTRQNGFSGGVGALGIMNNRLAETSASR
The assay is described as follows: Effect of DAG analogue on ΔN-THIK-2 channel current (I10th/I0) in CHO-K1 cells. Conditions: 10 and 30 μM. The format is cell-based.
Source text: as §1
Fig 7 Effect of C-Ala mutation or OAG on ΔN-THIK-2 channel. (A) Current-voltage relationships before and after stimulation of mGlu2. […]. (B) Effects of the mGlu2 activation on the ΔN-THIK-2 and C-Ala mutants. […]. Mean and S.D. are shown as bars (n = 11–12). (C) Current-voltage relationships before and after application of OAG. The current-voltage relationships before and 50 sec after application of OAG are shown (black and red lines, respectively). The tested concentration of OAG was 10 μM (left) and 30 μM (right). (D) Effects of OAG on the ΔN-THIK-2 channel. The ratio (I10th/I0) are not different between OAG applied group (filled circles) and vehicle applied group (open circles). Mean and S.D. are shown as bars (n = 7–11). **: 0.001<p≤ 0.01, n.s.: p> 0.05.

The target of another assay is T3, mGlu2 (Rattus norvegicus, UniProt P31421).
T3 construct: expressed in transfected cells; host or cells: HEK293T
T3 sequence (P31421 19-872): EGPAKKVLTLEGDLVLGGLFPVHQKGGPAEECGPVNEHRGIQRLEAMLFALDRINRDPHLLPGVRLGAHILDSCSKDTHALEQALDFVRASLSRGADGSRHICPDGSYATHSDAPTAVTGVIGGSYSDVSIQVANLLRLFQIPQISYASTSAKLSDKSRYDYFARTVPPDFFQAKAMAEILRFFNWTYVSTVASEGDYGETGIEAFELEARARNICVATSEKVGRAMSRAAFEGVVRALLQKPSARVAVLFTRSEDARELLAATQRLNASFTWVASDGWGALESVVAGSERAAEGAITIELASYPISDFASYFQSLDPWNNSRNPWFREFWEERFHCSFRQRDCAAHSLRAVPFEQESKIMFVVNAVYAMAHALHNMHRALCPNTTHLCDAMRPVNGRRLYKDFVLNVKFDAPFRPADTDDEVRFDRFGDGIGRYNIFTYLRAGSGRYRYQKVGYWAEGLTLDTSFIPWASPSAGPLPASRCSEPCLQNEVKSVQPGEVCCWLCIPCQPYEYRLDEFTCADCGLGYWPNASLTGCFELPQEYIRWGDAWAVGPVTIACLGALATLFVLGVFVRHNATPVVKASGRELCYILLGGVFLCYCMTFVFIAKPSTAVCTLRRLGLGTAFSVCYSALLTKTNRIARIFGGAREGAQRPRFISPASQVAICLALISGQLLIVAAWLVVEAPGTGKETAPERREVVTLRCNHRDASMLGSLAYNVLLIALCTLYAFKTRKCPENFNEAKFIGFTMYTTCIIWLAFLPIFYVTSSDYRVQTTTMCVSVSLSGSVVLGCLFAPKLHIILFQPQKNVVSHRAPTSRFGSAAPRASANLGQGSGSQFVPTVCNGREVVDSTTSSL
Nature of the assay: mGlu2-induced increase of THIK-1 channel current, whole cell patch clamp in HEK293T cells. Conditions: concentration response of THIK-1 current increase. The format is cell-based. The source says: (§2) Coding region of mGu2 (M1-P840) was amplified by conventional PCR with designed primers and the resulting product was subcloned into pEYFP-N1 vector at the BglII and EcoRI sites. The cDNAs for mouse THIK-2 channel and dimeric THIK channels were subcloned into pcDNA3.1(-) vector. To increase the surface membrane expression of the THIK-2 channel, 29 residues (Ser2-Ser30) were removed (ΔN-THIK-2). […] Ci-VSP-IRES-GFP vector was kindly gifted by Dr. Y. Okamura (Osaka University, Osaka, Japan). HEK293T cells or CHO-K1 cells were seeded on glasses and transfected with the plasmid DNAs for THIK channels, receptors and a transfection marker of yellow fluorescent protein (YFP). Electrophysiological experiments were performed 24–72 h after the transfection. […] Pertussis toxin (PTX) was purchased from Wako (Osaka, Japan). […] All reagents were dissolved at high concentration and stored at -20 °C as the stock solutions. The stock reagent solution was diluted at concentrations for the electrophysiological experiments. […]
(§3) The amplitude of the THIK-1 channel current at 0 mV was measured from every trace induced by the ramp pulse protocol to minimize the fraction of non-selective cationic leak current. […] The effects of GPCRs on the THIK-1 channel were evaluated as the ratio of the current amplitude after the agonist application to I0 (Iagonist/I0). […]

For assay [2], the system named is endogenously expressed channels in HEK293T cells. The assay is described as follows: Effect of receptor stimulation on the endogenous current in HEK293T cells without THIK-1. It is filed as cell-based. The source says:
The amplitude of the current increase at the 15th trace (ΔI15th) after the application of GABA or oxo-M were normalized to that at the 5th traces (ΔI5th) with or without additional activation of A2aR (ΔI15th/ΔI5th).
The current density at 0 mV (I0) in HEK293T cell transfected with indicated receptors and the effects of the receptor stimulation are shown as Mean and S.D.

Assay [3] addresses T4, mGlu2-YFP / ΔN-THIK-2 channel (Rattus norvegicus, UniProt P31421).
T4 construct: Coding region of mGu2 (M1-P840) was amplified by conventional PCR; expressed in transfected cells; host or cells: CHO-K1
Nature of the assay: mGlu2-YFP-induced increase of ΔN-THIK-2 channel current in CHO-K1 cells. The format is cell-based, mouse. Conditions: PTX treated cells, glutamate 200 μM.
Source text: as §2, with “experiments. PTX was solved in the culture medium (final concentration, 300 ng/mL) and cells were incubated in it for more than 16 h. U73122 or U73343 (final concentration, 2 μM each) was dissolved in Hanks’ Balanced Salt Solution (HBSS, Invitrogen, Carlsbad, CA, USA) supplemented with 1 mM Ca^2+ and 0.3 mM Mg^2+.” for “experiments.”

The target of a further assay is T5, GABABR (Homo sapiens, UniProt Q9UBS5).
T5 construct: expressed in transfected cells; host or cells: HEK293T
T5 sequence (Q9UBS5 15-961 limits assumed): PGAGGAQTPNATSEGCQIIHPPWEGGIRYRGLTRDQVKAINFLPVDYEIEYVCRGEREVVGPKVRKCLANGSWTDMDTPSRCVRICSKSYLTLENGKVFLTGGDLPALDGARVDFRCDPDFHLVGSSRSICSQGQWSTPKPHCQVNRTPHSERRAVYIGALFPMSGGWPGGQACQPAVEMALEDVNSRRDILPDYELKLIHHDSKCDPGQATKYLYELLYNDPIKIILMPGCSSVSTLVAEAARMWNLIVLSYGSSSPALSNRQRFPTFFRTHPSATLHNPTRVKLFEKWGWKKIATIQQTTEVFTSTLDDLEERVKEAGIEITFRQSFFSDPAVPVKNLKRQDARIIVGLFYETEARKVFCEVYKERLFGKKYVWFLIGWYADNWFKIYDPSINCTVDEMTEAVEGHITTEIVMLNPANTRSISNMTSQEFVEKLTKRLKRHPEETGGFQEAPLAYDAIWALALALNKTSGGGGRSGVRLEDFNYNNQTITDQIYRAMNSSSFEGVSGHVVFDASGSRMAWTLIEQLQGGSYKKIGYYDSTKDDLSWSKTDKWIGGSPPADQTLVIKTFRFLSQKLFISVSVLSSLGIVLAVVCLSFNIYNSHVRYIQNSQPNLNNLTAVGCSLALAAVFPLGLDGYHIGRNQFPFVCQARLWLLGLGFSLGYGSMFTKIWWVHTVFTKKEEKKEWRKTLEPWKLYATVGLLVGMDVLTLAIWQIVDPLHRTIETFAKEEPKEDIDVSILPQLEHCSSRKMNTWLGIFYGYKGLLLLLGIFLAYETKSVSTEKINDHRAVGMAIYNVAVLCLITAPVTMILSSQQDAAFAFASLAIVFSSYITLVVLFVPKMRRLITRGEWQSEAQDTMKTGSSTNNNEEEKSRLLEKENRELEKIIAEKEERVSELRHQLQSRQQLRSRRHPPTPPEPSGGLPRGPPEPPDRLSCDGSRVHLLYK
T5 sequence (O75899 42-941 partner): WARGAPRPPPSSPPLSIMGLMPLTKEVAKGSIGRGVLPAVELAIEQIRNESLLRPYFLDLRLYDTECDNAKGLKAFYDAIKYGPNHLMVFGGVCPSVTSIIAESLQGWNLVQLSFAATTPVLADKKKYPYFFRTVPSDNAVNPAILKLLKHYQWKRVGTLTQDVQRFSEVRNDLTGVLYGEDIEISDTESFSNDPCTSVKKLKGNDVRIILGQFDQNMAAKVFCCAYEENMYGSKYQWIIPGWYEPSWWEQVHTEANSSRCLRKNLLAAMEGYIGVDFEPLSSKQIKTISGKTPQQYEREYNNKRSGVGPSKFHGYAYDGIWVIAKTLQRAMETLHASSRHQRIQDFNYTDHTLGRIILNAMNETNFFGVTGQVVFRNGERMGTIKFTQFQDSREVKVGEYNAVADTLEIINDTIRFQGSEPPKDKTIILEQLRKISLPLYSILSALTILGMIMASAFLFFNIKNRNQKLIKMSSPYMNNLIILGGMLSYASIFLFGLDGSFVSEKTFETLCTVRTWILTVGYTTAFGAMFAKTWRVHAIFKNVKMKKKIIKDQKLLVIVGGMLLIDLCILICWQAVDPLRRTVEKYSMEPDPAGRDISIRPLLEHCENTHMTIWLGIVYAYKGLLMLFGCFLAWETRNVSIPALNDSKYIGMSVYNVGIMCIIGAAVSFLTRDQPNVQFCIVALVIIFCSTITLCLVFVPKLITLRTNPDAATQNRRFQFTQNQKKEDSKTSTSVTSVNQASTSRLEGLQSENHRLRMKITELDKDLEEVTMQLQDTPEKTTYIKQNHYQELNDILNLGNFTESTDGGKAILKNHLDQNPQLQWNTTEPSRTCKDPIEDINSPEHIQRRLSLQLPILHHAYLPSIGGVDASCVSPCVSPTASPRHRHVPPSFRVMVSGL
Nature of the assay: GABABR-induced increase of THIK-1 channel current, whole cell patch clamp in HEK293T cells. The format is cell-based. The following applies: PTX 300 ng/mL, more than 16 h.
Source text: as §2, §3

Assay [4] relates to THIK-1 channel. Nature of the assay: Basal current (I0) density of THIK-1 channel at 0 mV in HEK293T cells. The format is cell-based. The following applies: 0 mV, before agonist. The source says:
Coding region of mGu2 (M1-P840) was amplified by conventional PCR with designed primers and the resulting product was subcloned into pEYFP-N1 vector at the BglII and EcoRI sites. The cDNAs for mouse THIK-2 channel and dimeric THIK channels were subcloned into pcDNA3.1(-) vector. To increase the surface membrane expression of the THIK-2 channel, 29 residues (Ser2-Ser30) were removed (ΔN-THIK-2). […] Ci-VSP-IRES-GFP vector was kindly gifted by Dr. Y. Okamura (Osaka University, Osaka, Japan). HEK293T cells or CHO-K1 cells were seeded on glasses and transfected with the plasmid DNAs for THIK channels, receptors and a transfection marker of yellow fluorescent protein (YFP). Electrophysiological experiments were performed 24–72 h after the transfection. […] Pertussis toxin (PTX) was purchased from Wako (Osaka, Japan). […] All reagents were dissolved at high concentration and stored at -20 °C as the stock solutions. The stock reagent solution was diluted at concentrations for the electrophysiological experiments. PTX was solved in the culture medium (final concentration, 300 ng/mL) and cells were incubated in it for more than 16 h. U73122 or U73343 (final concentration, 2 μM each) was dissolved in Hanks’ Balanced Salt Solution (HBSS, Invitrogen, Carlsbad, CA, USA) supplemented with 1 mM Ca^2+ and 0.3 mM Mg^2+. Cells were incubated in HBSS with U73122 or U73343 for 10 min at room temperature before the whole cell current recording.
Composition of bath solution was (in mM) 140 NaCl, 4 KCl, 1 CaCl2, 0.3 MgCl2, 10 HEPES (pH 7.4 adjusted with NaOH). The pipette solution for whole cell patch clamp experiments contained (mM) 130 KCl, 5 Na2-ATP, 3 EGTA, 0.1 CaCl2, 10 HEPES, 4 MgCl2, (pH 7.3 adjusted with KOH). GTP (0.3 mM) was supplemented in the pipette solution. Once the whole cell configuration was established, the cell was held at -80mV and ramp pulses (-120mV to +40mV for 0.4 sec) were applied every 5 sec. Various concentrations of the agonists were applied using a fast perfusion system (VC77SP, Warner Instruments, Hamden, CT, USA). The PKC inhibitor chelerythrine was included in the pipette solution.
The amplitude of the THIK-1 channel current at 0 mV was measured from every trace induced by the ramp pulse protocol to minimize the fraction of non-selective cationic leak current. The current amplitude before the agonist application was set as the basal current amplitude (I0). The effects of GPCRs on the THIK-1 channel were evaluated as the ratio of the current amplitude after the agonist application to I0 (Iagonist/I0). The EC50 values were estimated by fitting the concentration response curve to a Hill equation (Origin2016; OriginLab, Northampton, MA, USA). […] The effects of A2aR on the Gi/o-R-induced current increase of the THIK-1 channel was estimated as follows. […] All data are shown as means and S.D. The statistical significance between two or more than two groups was estimated by unpaired Student’s t-test or by a one-way analysis of variance (ANOVA) followed by Tukey’s test, respectively. […] Values of p≤ 0.05 were considered as statistically significant (***:p≤0.001, **:0.001<p≤0.01, *:0.01<p≤0.05, n.s.:p>0.05).

T4 sequence (P31421 19-840, stated change not applied): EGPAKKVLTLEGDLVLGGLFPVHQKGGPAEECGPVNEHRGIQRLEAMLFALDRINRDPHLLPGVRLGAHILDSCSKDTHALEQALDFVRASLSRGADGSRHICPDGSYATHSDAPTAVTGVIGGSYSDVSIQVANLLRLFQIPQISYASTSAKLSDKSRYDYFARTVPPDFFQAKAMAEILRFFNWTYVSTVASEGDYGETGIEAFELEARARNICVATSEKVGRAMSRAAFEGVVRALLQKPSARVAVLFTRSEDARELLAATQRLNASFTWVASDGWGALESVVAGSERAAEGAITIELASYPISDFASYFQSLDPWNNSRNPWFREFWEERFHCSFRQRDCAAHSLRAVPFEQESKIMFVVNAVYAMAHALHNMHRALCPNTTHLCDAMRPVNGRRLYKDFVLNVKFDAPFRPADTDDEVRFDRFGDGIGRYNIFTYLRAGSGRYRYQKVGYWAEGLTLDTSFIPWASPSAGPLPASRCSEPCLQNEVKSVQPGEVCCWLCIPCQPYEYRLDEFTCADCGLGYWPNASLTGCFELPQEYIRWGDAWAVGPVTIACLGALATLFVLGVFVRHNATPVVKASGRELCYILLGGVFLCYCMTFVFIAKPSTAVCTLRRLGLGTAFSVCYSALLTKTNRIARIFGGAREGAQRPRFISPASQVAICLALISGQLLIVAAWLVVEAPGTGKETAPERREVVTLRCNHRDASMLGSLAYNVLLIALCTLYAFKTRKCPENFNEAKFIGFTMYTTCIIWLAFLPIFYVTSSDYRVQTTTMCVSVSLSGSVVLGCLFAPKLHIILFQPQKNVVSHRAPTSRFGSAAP

In the case of `CCCCCCCC/C=C\CCCCCCCC(=O)OC[C@H](CO)OC(C)=O` [OAG, 1-oleoyle-2-acetyl-sn-glycerol], the “increase in the amplitude of the THIK-1 channel current (I10th/I0) versus vehicle (DMSO)” value at THIK-1 channel [1] is “not significantly different”. Further, at ΔN-THIK-2 channel, the “current amplitude of ΔN-THIK-2 channel” value is “did not increase the current amplitude”.
On to `N[C@@H](CCC(=O)O)C(=O)O` [glutamate, L-glutamate], for which the “n; Hill coefficient” value at mGlu2 was found to be 1.19 ± 0.65. Further, the “Effect of agonist (Iagonist/I0)” value in assay [2] (HEK293T transfected with mGlu1, no THIK-1) was 0.98 ± 0.17; in assay [2] (HEK293T transfected with mGlu2, no THIK-1) it was 0.92 ± 0.06.
Pertussis toxin [PTX]: the “effect of mGlu2-YFP on ΔN-THIK-2 channel after inhibitor treatment” value in assay [3] is listed as “inhibited”. The “effect of GABA on the THIK-1 channel after inhibitor treatment” value in the assay with GABABR is on record as “not observed”. Also, the “Basal current (I0) density of THIK-1 channel” value with THIK-1 channel [4] (THIK-1 + GABABR, + PTX (300 ng/mL)) is 170.6 ± 58.2 (7)^n.s. pA/pF; in the assay on THIK-1 channel [4] (THIK-1 + M2R, + PTX (300 ng/mL)) it was 168.6 ± 141.2 (6)^n.s pA/pF; in the assay with THIK-1 channel [4] (THIK-1 + mGlu2, + PTX (300 ng/mL)), 281.87 ± 148.3 (5)^n.s. pA/pF.
